Drawing on a melting point compilation (Tetko et al.; mined from patent text by program, amines drawn as free bases though some values may be those of a salt), this text covers melting point for 65 compounds.

Each structure is given as a SMILES string.

The term melting point denotes the temperature of the solid-liquid transition.

Compound `Cc1nc2cc(OCc3ccccc3)c(OCc3ccccc3)cc2nc1C(=O)OCc1ccccc1` gave a melting point of 137 to 139 °C.

`CC1(C)Oc2cc3nonc3cc2C(N2CC(O)CCC2=O)C1O` (stereo not given) showed a melting point of 178 to 182 °C.

`CC(=O)c1ccc2c(c1)C(c1ccccc1F)=NC(C)(C)C(=O)N2C` gave a melting point of 68 °C.

As to `CC(C)C1OC(=Nc2nccs2)c2c1nc1c(C(F)(F)F)cccc1c2O` (stereo not given), the melting point is 246 to 248 °C.

The compound `COCCCOc1ccc(CCCO)c(Oc2ncc(C(F)(F)F)cc2Cl)c1` yielded a melting point of 68.7 to 70.9 °C.

In turn, `CCCN(CCC)C1Cc2c[nH]c3ccc(C(=O)C(C)(C)C)c(c23)C1` (stereo not given) returned a melting point of 92 °C.

For the compound `NC(=O)CCSSSSCCC(N)=O`, the melting point is 127 °C.

`CCOC(=O)C(=CNC1CC1)C(=O)c1c(F)c(F)c(F)c(F)c1F`: the melting point fell in the range of 85 to 86 °C.

As to `CCCOc1cc(NC(=O)NC(C)C)ccn1`, the melting point lay within 77 to 79 °C.

The compound `COc1ccc(OC)c2c(C=O)c3ccccc3c(C=O)c12` yielded a melting point of 208 to 212 °C.

For the compound `CC(C)(C)OC(=O)n1ccc2cc(-c3ccccc3)ccc21`, the melting point lay within 105 to 106 °C.

`CCCCCCCCCCC[C@H](O)C[C@@H]1OC(=O)[C@H]1CCCCCC`: the melting point was in the range of 61 to 62 °C.

Regarding `Cc1nnc2n1-c1ccc(Cl)cc1C(N1CC=CCC1)=NC2`, the melting point was 192 to 194 °C.

Regarding `COP(=O)(OC)C(C)(C)O`, the melting point fell in the range of 75 to 77 °C.

In turn, `O=c1ccc2ccc(OCC(O)CO)cc2o1` (stereo not given) registered a melting point of 118 to 120 °C.

As for `Nc1nc(=O)n(C2OC(CO)CC2O)cc1F` (stereo not given), the melting point lay in the range of 137 to 138 °C.

The compound `COC(=O)C(=O)c1ccc(OCCCCOc2ccccc2)cc1` showed a melting point of 57 to 59 °C.

In turn, `COC(=O)CN(C)C(=O)c1c(OC)ccc2c(Br)c(OC)ccc12` yielded a melting point of 142 to 144 °C.

Turning to `COC(=O)c1ccc2oc3c(c(=O)c2c1)CCCC3=Cc1ccccc1`, the melting point fell in the range of 168 to 170 °C.

On to `O=Cc1cccc([N+](=O)[O-])c1F`, for which the melting point lay in the range of 46 to 47 °C.

Turning to `CCN=C(Cc1ccccc1)N1CC2C(=O)CCC(c3ccccc3)(c3ccccc3)C2C1` (stereo not given), the melting point is 108 °C.

In the case of `c1ccc2c(c1)OCc1c(-c3nc(C4CC4)no3)ncn1-2`, the melting point was 169 to 173 °C.

In turn, `O=C1c2ccccc2S(=O)(=O)N1C1CCN(CC2COc3ccccc3O2)CC1` (stereo not given) returned a melting point of 224 to 230 °C.

`COc1ccc(/C=C(\C#N)c2cc(OC)c(OC)c(OC)c2)cc1[N+](=O)[O-]` had a melting point of 158 to 159 °C.

Take `N=C(N)NCCC[C@H](NC(=O)CNC(=O)C(CS)Cc1ccccc1)C(=O)O` (stereo not given in full): the melting point lay in the range of 120 to 137 °C.

The compound `COc1cccc(C2CCCCNC2=O)c1` (stereo not given) came in with a melting point of 116 to 117 °C.

`OC(CCc1ccc(OCc2ccccc2)c(OCc2ccccc2)c1)C1CCCCC1` (stereo not given) showed a melting point of 107 to 108 °C.

With `CCCC1=NC(=NOC(=O)NC)SC1(C)C`, the melting point lay within 112 to 114 °C.

The compound `CCN(CC)C(=O)c1ccoc1-c1ccc2ccccc2c1` displayed a melting point of 92 to 93 °C.

With `CCCCc1nn(-c2cc(N)ccc2Cl)c(=O)n1Cc1ccc(-c2ccccc2S(=O)(=O)NC(=O)c2ccccc2Cl)cc1`, the melting point is 155 to 157 °C.

`O=C(c1ccccc1)c1cccc2c1NCC2`: the melting point was 124 to 125 °C.

In the case of `O=C(NNCCc1ccc(O)cc1)OCc1ccccc1`, the melting point was in the range of 94 to 97 °C.

`CCCCc1ccc(CCCCCCC(=O)O)cc1` gave a melting point of 32 to 33 °C.

As to `CC(C)C[C@H](NC(=O)c1ccc2c(c1)Nc1ccccc1S2)C(=O)N[C@H]1CCOC1OC(=O)C(C)(C)C` (stereo not given in full), the melting point lay within 107 to 109 °C.

In turn, `COC(CCOc1cc(C)ccc1C)C(C)(C)C(=O)O` (stereo not given) had a melting point of 76 to 77 °C.

`COC(=O)c1ccc(-c2nnc(-c3ccc(C(C)(C)C)cc3)o2)c([N+](=O)[O-])c1` came in with a melting point of 142 to 143 °C.

`O=c1[nH]c2ccc(Cl)cc2c(=O)n1N1CCOCC1` displayed a melting point of 335 °C.

`Cc1cc(C)c2c(n1)Nc1ccccc1NC2=O` showed a melting point of 297 to 299 °C.

In turn, `CNC1CN(CCO)CCN1c1ncc(SC)c(Cl)n1` (stereo not given) showed a melting point of 120 to 122 °C.

On to `Cc1ccccc1-c1cc(N2CCC(O)CC2)ncc1C(=O)N(C)Cc1cc(C(F)(F)F)cc(C(F)(F)F)c1`, for which the melting point lay within 150 to 152 °C.

In turn, `COc1ccc(-c2cccc(C(=O)NN)c2)cc1OC1CCCC1` had a melting point of 167 to 168 °C.

The compound `COc1ccc(C(O)c2cccc(OCc3ccc4ccccc4n3)c2)cc1` (stereo not given) yielded a melting point of 70 to 80 °C.

`Nc1cc2c(c3ccccc13)C(CCl)CN2C(=O)C(F)(F)F` (stereo not given) yielded a melting point of 177 °C.

`CC(=Cc1ccccc1)C(C#N)=NOS(C)(=O)=O` showed a melting point of 105 to 107 °C.

`N#CCOC(=O)c1ccc(CNC(=O)CCCCCN2C(=O)C=CC2=O)cc1O`: the melting point lay within 141 to 144 °C.

For `CCCCC(=O)Nc1ccc(Cl)c(-n2nc(CCCC)n(Cc3ccc(-c4ccccc4S(=O)(=O)NC(=O)OC(C)(C)C)cc3)c2=O)c1`, the melting point fell in the range of 177 to 179 °C.

The compound `CC(=O)NC(C)(C)Cc1ccc2c(c1)CCC2` showed a melting point of 130 to 131 °C.

In turn, `CC(=O)OC1C(N2CCCCC2)CC2C3CCC4CCC(N5CCCCC5)CC4(C)C3CCC21C` (stereo not given) came in with a melting point of 156 to 161 °C.

In turn, `COc1ccccc1-c1ccc(C(=O)N2Cc3ccc(C(=O)NC(CO)c4ccccc4)n3Cc3ccccc32)cc1` (stereo not given) returned a melting point of 195 to 196 °C.

The compound `COc1cc(/C(C#N)=C\c2ccc(Cl)c(N)c2)cc(OC)c1OC` had a melting point of 150 to 151 °C.

Compound `COC(=O)c1cc(O)cc(-c2ccccc2)c1` had a melting point of 108 to 110 °C.

With `O=C(O)c1ccccc1C(=O)NCCCSc1ccncc1`, the melting point lay within 151 to 153 °C.

Compound `Cc1ccc(Oc2ccc(C#CC(C)N(O)C(N)=O)o2)cn1` (stereo not given) yielded a melting point of 149 °C.

Consider `COc1ccc(C2CCOCC2)c2sc(NC(=O)N(C)[C@H]3CC[C@H](O)CC3)nc12`, for which the melting point stood at 160 °C.

`O=C(CCCC1CCN(Cc2cccc(O)c2)CC1)c1ccc2c(c1)CCN(Cc1ccccc1)CC2` came in with a melting point of 88 to 94 °C.

The compound `CS(=O)(=O)NCCn1nnnc1S` came in with a melting point of 131 to 132 °C.

`O=c1c2c(c1=O)N(CCP(=O)(O)O)CC(O)CN2` (stereo not given) yielded a melting point of 215 to 218 °C.

`Cc1nnc(-c2ccc3occ(-c4cccc(C(F)(F)F)c4)c3c2)o1` returned a melting point of 126 to 127 °C.

Take `NC(=O)OCc1cc2c(Oc3ccc(Cl)cc3)cncc2s1`: the melting point fell in the range of 113 to 115 °C.

As to `CN(C)c1cc(Cl)c(C=O)c(Cl)c1`, the melting point lay in the range of 169 to 171 °C.

As to `CCOCc1nc2c(N)nc3ccccc3c2n1CC1CCN(Cc2ccccc2)O1` (stereo not given), the melting point fell in the range of 137 to 138 °C.

`CCn1nnc(-c2ccc(C(=O)N[C@@H]3CCCC[C@@H]3c3ccc(OC)c(OC)c3)cc2)n1`: the melting point fell in the range of 188 to 192 °C.

Take `C=CC(=O)NCCOc1ccc2c(c1)nc(N)c1nc(CCC)sc12`: the melting point lay in the range of 200 to 202 °C.

`O=Cc1ccc(-c2ccc(C(=O)O)cc2)c([N+](=O)[O-])c1` came in with a melting point of 227 to 235 °C.

Take `O=C(NC(=O)c1c(F)cccc1F)Nc1cc(Cl)c(S(=O)C(F)(F)C(F)F)cc1Cl` (stereo not given): the melting point was in the range of 216 to 220 °C.
